Data published in patent US12577273B2, “Small molecule modulators of gut bacterial bile acid metabolism” (priority 2019, dated 2026).
“And” between values parts separate entries of the source, which are not always exact repeats. Identical values can stand only once. “Also recorded” adds a separate entry of the source.

Legend:
[1] = biological target: B. theta BSH (Bacteroides thetaiotaomicron, UniProt Q8A600); assay: Compound 7 kinetic studies (time to complete inhibition); type: biochemical
Procedure: Formation of deconjugated bile acid was measured using a UPLC-MS-based assay and reported as % conversion.
Compound 7 Kinetic Studies. […] B. theta BSH (200 nM) was added to a pool of 100 μM bile acid pool and 100 μM 7. 500 μL aliquots were removed at indicated time points and flash frozen in liquid nitrogen. […] Procedure was repeated with 8.2 mM TUDCA.

[2] = system: B. vulgatus; assay: Inhibitor screen in bacteria, B. vulgatus culture; type: cell-based, Bacteroides vulgatus ATCC 8482; details: FIG. 2c, 100 μM inhibitor, 100 μM bile acid pool, 21 h, replicates 1-3
Procedure: Bacterial Culturing. All bacterial strains were cultured at 37° C. in Cullen-Haiser Gut (CHG) media (which consists of brain heart infusion media (Bacto™ BHI, BD) supplemented with 1% BBL vitamin K1-hemin solution (BD), 1% trace minerals solution (ATCC), 1% trace vitamins solution (ATCC), 5% fetal bovine serum (Hyclone), 1 g/L cellubiose, 1 g/L maltose, and 1 g/L fructose) or BHI^+ (Bacto™ BHI, BD, supplemented with 5 mg/L hemin, and 2.5 uL/L Vitamin K1). All strains were grown under anaerobic conditions in a anaerobic chamber (Coy Lab Products Airlock) with a gas mix of 5% hydrogen and 20% carbon dioxide nitrogen. Escherichia coli was grown aerobically at 37° C. in LB medium supplemented with ampicillin to select for the pET21b plasmid.
Inhibitor Screen in Bacteria. Bacterial cultures were diluted to OD600 of 0.1 in 4 mL BHI^+, containing 100 μM taurine conjugated bile acid pool 100 μM inhibitors. […] After 21 h, serial dilutions were plated on BHI^+ agar to determine cell viability (CFU/mL). […] The cultures were spun down in a centrifuge at 2,500 g for 5 mins to obtain better separation. The organic layer was then removed and the aqueous layer was extracted again using 2 mL of ethyl acetate.

[3] = system: B. theta cultures; assay: BSH inhibition in growing B. theta cultures, single substrate (GUDCA or TUDCA); type: cell-based, Bacteroides thetaiotaomicron; details: 10 μM inhibitor, 100 μM GUDCA
[4] = system: B. adolescentis BSH; assay: Target validation and off-target profiling in B. adolescentis using 7-N3; type: cell-based, Bifidobacterium adolescentis L2-32; details: decreasing concentrations of 7 for 1 h, then 10 μM 7-N3
Procedure: Target Validation and Off-target Profiling in B. adolescentis using 7-N3. Pilot studies with 7-N3 were performed using B. adolescentis (Gram positive) and B. theta (Gram negative). We chose to use B. adolescentis due to the stronger total fluorescent signal detected by-in gel fluorescence. […] Cultures were allowed to grow anaerobically at 37° C. for 21 h. 10 μM 7-N3 (10 mM stock in DMSO) or […] DMSO (to control tubes) was then added to the cultures and incubated anaerobically at 37° C. for 1 h. The cultures were centrifuged at 2,500 g at 4° C. for 15 mins. The media was decanted and cells were resuspended in PBS containing 1 mM TCEP and 1 mM PMSF and centrifuged 4,200 rpm at 4° C. for 15 mins. The buffer was decanted and the cells were suspended in 300 μL of fresh buffer and transferred to homogenizing tubes (Precellys lysing kit tough micro-organism lysing VK05 tubes) with ceramic beads. The suspension was then homogenized (5000 speed for 90 s*2, 6500 speed for 60 s) and spun down for 20 min at 15,000 g at 4° C. The supernatant was removed and the concentration of proteins in the lysate was quantified by Bradford assay. The lysates were then subjected to click reaction as per “Click Chemistry for In-gel Fluorescence Imaging” for fluorescence imaging and “Click Chemistry for MS/MS on Bacterial Lysate” for mass spectrophotometer-based quantification and identification.
Cultures were allowed to grow anaerobically at 37° C. for 21 h. Decreasing concentrations of 7 were added to different tubes and the cultures were incubated anaerobically at 37° C. for 1 h. 10 μM 7-N3 was then added to the cultures and incubated anaerobically at 37° C. for an additional hour. The cultures were further processed as per the reported method in “Target Validation and Off-target Profiling in B. adolescentis using 7-N3” and “Click Chemistry for In-gel Fluorescence Imaging”.
Click Chemistry for In-gel Fluorescence Imaging. Click reactions were performed on 25 μL scale. Lysates (normalized to 1.5 mg/mL for both bacterial and mammalian cells) pretreated with 10 μM Compound 7-N3 were incubated with 100 μM fluor 488-alkyne (10 mM stock in DMSO), 100 μM CuBr (5 mM stock in DMSO), and 100 μM Tris[(1-benzyl-1H-1,2,3-triazol-4-yl)methyl]amine (5 mM stock in 4:1 t-BuOH:DMSO) for 1 h at 37° C. in the dark. 10 μL of 2×Laemmli buffer (containing 5% β-mercaptoethanol) was added to the reactions and the tubes were heated at 95° C. for 10 mins. 15 μL of the protein samples were then resolved by 10% SDS-PAGE. The ladder was diluted 100-fold and 10 μL was loaded. Gels were destained for 30 mins using 40% methanol, 50% acetic acid, 10% water and visualized using Bio-Rad ChemiDoc MP Imaging System. Gels were stained for 20 mins in Coomassie blue and destained for 2 h prior to imaging.
Click Chemistry for MS/MS on Bacterial Lysate. Click reactions were performed on 100 μL scale. Lysates (normalized to 1.3 mg/mL) pretreated with 10 μM 7-N3 were incubated with 100 μM desthiobiotin-PEG4-alkyne (10 mM stock in DMSO), 1 mM CuBr (50 mM stock in DMSO), and 1 mM Tris[(1-benzyl-1H-1,2,3-triazol-4-yl)methyl]amine (50 mM stock in 4:1 t-BuOH:DMSO) for 1 h at 37° C. The samples were then processed for further analysis as per “Proteomic Analysis of Click-Tagged Proteins”.
Proteomic Analysis of Click-Tagged Proteins.

[5] = system: three Gram negative and three Gram positive strains of human gut bacteria; assay: BSH inhibition in growing cultures of six gut bacterial strains (overall statements); type: cell-based; details: 100 μM inhibitor, 100 μM conjugated bile acid mixture
[6] = system: B. adolescentis; assay: Inhibitor screen in bacteria, B. adolescentis culture; type: cell-based, Bifidobacterium adolescentis L2-32; details: FIG. 2c, 100 μM inhibitor, 100 μM bile acid pool, 21 h, replicates 1-3
[7] = system: differentiated Caco-2 cells
[8] = system: three Gram negative and three Gram positive strains of human gut bacteria; assay: Growth (OD600) and cell viability (CFU/mL) of the six gut bacterial strains; details: 100 μM inhibitor

Compound: C[C@H](CCC(=O)CF)[C@H]1CC[C@H]2[C@@H]3[C@H](O)C[C@@H]4C[C@H](O)CC[C@]4(C)[C@H]3CC[C@]12C [Compound 7]
- time to complete inhibition of B. theta BSH ([1]; 100 μM 7 equimolar to substrate, no preincubation): ≤ 15 s
- time to entire inhibition of B. theta BSH activity ([1]; large excess (~80-fold) of substrate (8.2 mM TUDCA)): ≤ 15 min
- % deconjugation of TCA [2]: 0.68% and 0.64% and 0.47%
- % deconjugation of TDCA [2]: 0.90% and 0.17% and 0.81%
- % deconjugation of TUDCA [2]: 1.90% and 3.62% and 0.80%
- % deconjugation of TβMCA [2]: 1.58% and 0.41% and 0.65%
- deconjugation of GUDCA in growing B. theta cultures (in words) [3]: nearly complete inhibition of deconjugation
- competition of 7 with 7-N3 for labeling of B. adolescentis BSH [4]: dose-dependent labeling
- deconjugation / BSH inhibition in cultures of the six bacterial strains (in words) [5]: almost no deconjugation
- deconjugation / BSH inhibition in cultures of the six bacterial strains (in words) ([5]; listed as compound 7): almost no detectable deconjugation
- % deconjugation of TCA [6]: 2.88% and 3.09% and 2.93%
- % deconjugation of TDCA [6]: 10.43% and 6.05% and 7.35%
- % deconjugation of TUDCA [6]: 1.54% and 1.26% and 1.21%
- % deconjugation of TβMCA [6]: 0.34% and 0.37% and 0.73%
- epithelial monolayer integrity (passive diffusion of 4 kDa FITC-dextran) [7]: did not compromise epithelial monolayer integrity
- effect on bacterial cell viability (CFU/mL, plated at 21 h) [8]: not bactericidal; also recorded: did not significantly affect the cell viability of the majority of the tested strains
- effect on bacterial growth (OD600 at 24 hours) [8]: did not significantly impact the growth
- effect on bacterial growth (OD600 at 24 hours) ([8]; listed as compound 7): not bactericidal
